Source: US7994209B2, “3-phenoxymethylpyrrolidine compounds” (Theravance, Inc., priority 2009, dated 2011)

Key:
[1] = biological target: T1, hNET (Homo sapiens, UniProt P23975); test: hNET membrane radioligand binding assay (3H-nisoxetine), Assay 1
[2] = biological target: T2, hSERT (Homo sapiens, UniProt P31645); test: hSERT membrane radioligand binding assay (3H-citalopram), Assay 1; conditions: SERT pKi, hSERT HEK-293 membranes, 1.0 nM 3H-citalopram; values given as lower bounds
[3] = biological target: T1, hNET; test: hNET neurotransmitter uptake assay (3H-NE), Assay 2; format: cell-based; design: expressed in transfected cells; host or cells: HEK-293; conditions: norepinephrine reuptake inhibition, 3H-NE uptake, HEK-293 hNET cells (values without asterisk); read-out: NET pIC50 (converted)
Experimental: (§1) Cells were harvested by centrifugation at 1100 rpm for 5 minutes, washed once by resuspension in PBS, then centrifuged. The supernatant was discarded and the cell pellet resuspended, by gentle trituration, in room temperature Krebs-Ringer bicarbonate buffer containing HEPES (10 mM), CaCl2 (2.2 mM), ascorbic acid (200 μM) and pargyline (200 μM), pH 7.4.
(§2) Test compounds were incubated for 30 minutes at 37° C. with the respective cells, prior to addition of radiolabeled neurotransmitter, ^3H-5-HT (20 nM final concentration), ^3H-NE (50 nM final concentration) or ^3H-DA (100 nM final concentration).

[4] = biological target: T2, hSERT; test: hSERT neurotransmitter uptake assay (3H-5-HT), Assay 2; format: cell-based; design: expressed in transfected cells; host or cells: HEK-293; conditions: serotonin reuptake inhibition, 3H-5-HT uptake, HEK-293 hSERT cells (values without asterisk); read-out: SERT pIC50 (converted)
Experimental: as §1, §2

T2 sequence (P31645 whole entry): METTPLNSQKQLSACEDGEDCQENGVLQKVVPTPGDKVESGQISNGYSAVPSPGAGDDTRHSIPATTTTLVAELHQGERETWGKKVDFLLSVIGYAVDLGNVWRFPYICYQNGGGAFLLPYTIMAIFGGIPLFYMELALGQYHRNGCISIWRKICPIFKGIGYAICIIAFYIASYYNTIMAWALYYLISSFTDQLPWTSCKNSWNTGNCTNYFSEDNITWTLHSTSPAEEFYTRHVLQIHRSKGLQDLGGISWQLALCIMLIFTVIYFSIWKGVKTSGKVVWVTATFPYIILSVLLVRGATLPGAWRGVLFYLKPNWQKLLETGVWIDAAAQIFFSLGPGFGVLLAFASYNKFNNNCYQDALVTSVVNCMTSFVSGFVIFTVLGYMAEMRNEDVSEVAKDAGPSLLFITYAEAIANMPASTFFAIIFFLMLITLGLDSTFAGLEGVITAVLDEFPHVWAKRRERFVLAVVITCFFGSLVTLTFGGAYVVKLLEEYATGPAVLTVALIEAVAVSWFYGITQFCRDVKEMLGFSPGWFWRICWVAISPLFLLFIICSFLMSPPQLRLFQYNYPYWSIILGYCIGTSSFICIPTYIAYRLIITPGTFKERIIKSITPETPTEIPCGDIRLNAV
T1 sequence (P23975 whole entry): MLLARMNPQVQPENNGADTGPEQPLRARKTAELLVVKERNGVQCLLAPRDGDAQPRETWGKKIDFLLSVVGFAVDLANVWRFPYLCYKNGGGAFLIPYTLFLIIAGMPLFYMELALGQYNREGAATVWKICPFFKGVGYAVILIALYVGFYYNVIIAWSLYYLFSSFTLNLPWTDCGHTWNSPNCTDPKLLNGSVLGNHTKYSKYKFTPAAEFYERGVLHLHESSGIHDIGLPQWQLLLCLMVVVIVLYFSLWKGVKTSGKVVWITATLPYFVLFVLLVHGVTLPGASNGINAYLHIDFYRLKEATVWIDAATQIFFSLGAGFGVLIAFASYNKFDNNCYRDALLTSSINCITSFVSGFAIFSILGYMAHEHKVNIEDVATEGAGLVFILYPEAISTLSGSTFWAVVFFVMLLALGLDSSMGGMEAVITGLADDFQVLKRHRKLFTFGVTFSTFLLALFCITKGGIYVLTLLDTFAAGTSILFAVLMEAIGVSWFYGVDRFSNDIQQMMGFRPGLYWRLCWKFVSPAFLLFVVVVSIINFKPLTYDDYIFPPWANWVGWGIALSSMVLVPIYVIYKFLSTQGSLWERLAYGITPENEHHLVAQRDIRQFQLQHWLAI

Compound	Ki [1]	Ki [2]	IC50 [3]	IC50 [4]
CC[C@H](Oc1ccc(Cl)cc1Cl)[C@H]1CCNC1 [Example 1, (S)-3-[(S)-1-(2,4-Dichlorophenoxy)propyl]pyrrolidine]	≤ 0.01 µM	≤ 0.01 µM	≤ 0.01 µM	≤ 0.01 µM
CC[C@H](Oc1cccc(Cl)c1)[C@H]1CCNC1 [Example 2-1, (S)-3-[(S)-1-(3-Chlorophenoxy)propyl]pyrrolidine]	≤ 0.01 µM	≤ 0.1 µM	≤ 0.01 µM	≤ 0.1 µM
CC[C@H](Oc1ccc(Cl)cc1)[C@H]1CCNC1 [Example 2-2, (S)-3-[(S)-1-(4-Chlorophenoxy)propyl]pyrrolidine]	≤ 0.01 µM	≤ 0.01 µM	≤ 0.01 µM	≤ 0.01 µM
CC[C@H](Oc1ccc(Cl)c(F)c1)[C@H]1CCNC1 [Example 2-5, (S)-3-[(S)-1-(4-Chloro-3-fluorophenoxy)propyl]pyrrolidine]	≤ 0.01 µM	≤ 0.01 µM	≤ 0.01 µM	≤ 0.01 µM
CC[C@H](Oc1ccc(Cl)c(Cl)c1)[C@H]1CCNC1 [Example 2-7, (S)-3-[(S)-1-(3,4-Dichlorophenoxy)propyl]pyrrolidine]	≤ 0.01 µM	≤ 0.01 µM	≤ 0.01 µM	≤ 0.01 µM
CC[C@H](Oc1ccc(Cl)c(C)c1)[C@H]1CCNC1 [Example 2-13, (S)-3-[(S)-1-(4-Chloro-3-methylphenoxy)propyl]pyrrolidine]	≤ 0.01 µM	≤ 0.01 µM	≤ 0.01 µM	≤ 0.01 µM
CC[C@H](Oc1cc(Cl)cc(Cl)c1)[C@H]1CCNC1 [Example 2-18, (S)-3-[(S)-1-(3,5-Dichlorophenoxy)propyl]pyrrolidine]	≤ 0.1 µM	≤ 0.01 µM	≤ 0.1 µM	≤ 0.1 µM
CC[C@@H](Oc1cc(Cl)cc(Cl)c1)[C@@H]1CCNC1 [Example 2-19, (R)-3-[(R)-1-(3,5-Dichlorophenoxy)propyl]pyrrolidine]	≤ 0.01 µM	≤ 0.01 µM	≤ 0.1 µM	≤ 0.1 µM
CC[C@H](Oc1ccc(F)c(Cl)c1)[C@H]1CCNC1 [Example 2-21, (S)-3-[(S)-1-(3-Chloro-4-fluorophenoxy)propyl]pyrrolidine]	≤ 0.01 µM	≤ 0.01 µM	≤ 0.01 µM	≤ 0.1 µM
CC[C@H](Oc1cc(F)c(OC)c(F)c1)[C@H]1CCNC1 [Example 2-22, (S)-3-[(S)-1-(3,5-Difluoro-4-methoxyphenoxy)propyl]pyrrolidine]	≤ 0.01 µM	≤ 0.01 µM	≤ 0.01 µM	≤ 0.1 µM
CC[C@H](Oc1ccccc1Cl)[C@H]1CCNC1 [Example 2-23, (S)-3-[(S)-1-(2-Chlorophenoxy)propyl]pyrrolidine]	≤ 0.01 µM	≤ 0.01 µM	≤ 0.01 µM	≤ 0.1 µM
CC[C@H](Oc1c(F)cccc1Cl)[C@H]1CCNC1 [Example 2-25, (S)-3-[(S)-1-(2-Chloro-6-fluorophenoxy)-propyl]pyrrolidine]	≤ 0.01 µM	≤ 0.01 µM	≤ 0.01 µM	≤ 0.1 µM
CC[C@H](Oc1c(C)cccc1Cl)[C@H]1CCNC1 [Example 2-27, (S)-3-[(S)-1-(2-Chloro-6-methylphenoxy)propyl]pyrrolidine]	≤ 0.01 µM	≤ 0.01 µM	≤ 0.01 µM	≤ 0.1 µM
CC[C@H](Oc1cccc(Cl)c1Cl)[C@H]1CCNC1 [Example 2-28, (S)-3-[(S)-1-(2,3-Dichlorophenoxy)propyl]pyrrolidine]	≤ 0.01 µM	≤ 0.01 µM	≤ 0.01 µM	≤ 0.01 µM
CC(C)CC(Oc1cccc(F)c1)C1CCNC1 (stereo not drawn) [Example 10-26, 3-[1-(3-Fluorophenoxy)-3-methylbutyl]pyrrolidine]	–	≤ 0.01 µM	≤ 0.01 µM	≤ 0.01 µM
Clc1ccc(O[C@@H](C2CC2)[C@H]2CCNC2)c(C2CCCCC2)c1 [Example 16-43, (S)-3-[(S)-(4-Chloro-2-cyclohexylphenoxy)cyclopropylmethyl]pyrrolidine]	≤ 0.01 µM	≤ 0.1 µM	–	–
Cc1cccc(Cl)c1O[C@@H](C1CC1)[C@H]1CCNC1 [Example 16-45, (S)-3-[(S)-(2-Chloro-6-methylphenoxy)cyclopropylmethyl]pyrrolidine]	≤ 0.01 µM	≤ 0.1 µM	–	–
Cc1ccc(Cl)c(O[C@@H](C2CC2)[C@H]2CCNC2)c1F [Example 16-68, (S)-3-[(S)-(6-Chloro-2-fluoro-3-methylphenoxy)cyclopropylmethyl]pyrrolidine]	≤ 0.01 µM	≤ 0.1 µM	–	–
Cc1ccc(Cl)c(O[C@H](C2CC2)[C@H]2CCNC2)c1F [Example 16-69, (S)-3-[(R)-(6-Chloro-2-fluoro-3-methylphenoxy)cyclopropylmethyl]pyrrolidine]	≤ 0.01 µM	≤ 0.1 µM	–	–

Compound	Ki [1]	Ki [2]	IC50 [3]	IC50 [4]
COc1ccc(Cl)c(O[C@@H](C2CC2)[C@H]2CCNC2)c1F [Example 16-70, (S)-3-[(S)-(6-Chloro-2-fluoro-3-methoxyphenoxy)cyclopropylmethyl]pyrrolidine]	≤ 0.01 µM	≤ 0.1 µM	–	–
Clc1cc(Cl)c(O[C@@H](C2CC2)[C@H]2CCNC2)cc1Cl [Example 16-71, (S)-3-[(S)cyclopropyl-(2,4,5-trichlorophenoxy)methyl]pyrrolidine]	≤ 0.1 µM	≤ 0.01 µM	–	–
Fc1cc(Cl)cc(Cl)c1O[C@@H](C1CC1)[C@H]1CCNC1 [Example 16-75, (S)-3-[(S)cyclopropyl-(2,4-dichloro-6-fluorophenoxy)methyl]pyrrolidine]	≤ 0.01 µM	≤ 0.01 µM	–	–
Cc1cc(Cl)cc(C)c1O[C@@H](C1CC1)[C@H]1CCNC1 [Example 16-82, (S)-3-[(S)-(4-Chloro-2,6-dimethylphenoxy)cyclopropylmethyl]pyrrolidine]	≤ 0.1 µM	≤ 0.01 µM	–	–
Cc1cc(O[C@@H](C2CC2)[C@H]2CCNC2)c(Cl)c(C)c1Cl [Example 16-83, (S)-3-[(S)cyclopropyl-(2,4-dichloro-3,5-dimethylphenoxy)-methyl]pyrrolidine]	≤ 0.1 µM	≤ 0.01 µM	–	–
Fc1ccc(O[C@H](C2CC2)[C@@H]2CCNC2)cc1Cl [Example 16-90, (R)-3-[(R)-(3-Chloro-4-fluorophenoxy)cyclopropylmethyl]pyrrolidine]	≤ 0.1 µM	≤ 0.01 µM	–	–
Fc1cc(O[C@H](C2CC2)[C@@H]2CCNC2)ccc1Cl [Example 16-92, (R)-3-[(R)-(4-Chloro-3-fluorophenoxy)cyclopropylmethyl]pyrrolidine]	≤ 0.1 µM	≤ 0.01 µM	–	–
Clc1ccc(O[C@H](C2CC2)[C@H]2CCNC2)cc1 [Example 16-102, (S)-3-[(R)-(4-Chlorophenoxy)cyclopropylmethyl]pyrrolidine]	≤ 0.1 µM	≤ 0.01 µM	–	–
FC(F)(F)c1ccc(O[C@@H](C2CC2)[C@H]2CCNC2)cc1 [Example 16-104, (S)-3-[(S)cyclopropyl-(4-trifluoromethylphenoxy)methyl]pyrrolidine]	≤ 0.1 µM	≤ 0.01 µM	–	–
Fc1ccccc1O[C@H](C1CCCCC1)[C@H]1CCNC1 [Example 20-1, (S)-3-[(R)-Cyclohexyl-(2-fluorophenoxy)methyl]pyrrolidine]	≤ 0.01 µM	≤ 0.1 µM	–	–
COc1ccccc1OC(C1CCCCC1)C1CCNC1 (stereo not drawn) [Example 20-2, 3-[Cyclohexyl-(2-methoxyphenoxy)methyl]pyrrolidine]	≤ 0.1 µM	≤ 0.1 µM	–	–
O=[N+]([O-])c1ccccc1O[C@H](C1CCCCC1)[C@H]1CCNC1 [Example 20-3, (S)-3-[(R)-Cyclohexyl-(2-nitrophenoxy)methyl]pyrrolidine]	≤ 0.01 µM	≤ 0.1 µM	–	–
CC(=O)c1ccccc1O[C@@H](C1CCCCC1)[C@@H]1CCNC1 [Example 20-4, 1-[2-((R)-Cyclohexyl-(S)-pyrrolidin-3-yl-methoxy)phenyl]ethanone]	≤ 0.01 µM	≤ 0.1 µM	–	–
Clc1cc(Cl)cc(OC(C2CCCCC2)C2CCNC2)c1 (stereo not drawn) [Example 20-6, 3-[Cyclohexyl-(3,5-dichlorophenoxy)methyl]pyrrolidine]	≤ 0.01 µM	≤ 0.01 µM	–	–
Fc1cccc(O[C@H](C2CCCCC2)[C@H]2CCNC2)c1 [Example 20-7, (S)-3-[(R)-Cyclohexyl-(3-fluorophenoxy)methyl]pyrrolidine]	≤ 0.01 µM	≤ 0.1 µM	–	–
FC1(F)CCC(C(Oc2cc(Cl)cc(Cl)c2)C2CCNC2)CC1 (stereo not drawn) [Example 21, 3-[(3,5-Dichloro-phenoxy)-(4,4-difluorocyclohexyl)methyl]pyrrolidine]	≤ 0.01 µM	≤ 0.01 µM	–	–
Clc1ccc(O[C@@H](C2CC2)[C@H]2CCNC2)c2ccccc12 [Example 23-2, (S)-3-[(S)-(4-Chloronaphthalen-1-yloxy)cyclopropylmethyl]pyrrolidine]	≤ 0.01 µM	≤ 0.1 µM	–	–
C=CC[C@@H](Oc1ccc(Cl)cc1C)[C@H]1CCNC1 [Example 25-2, (S)-3-[(R)-1-(4-Chloro-2-methylphenoxy)but-3-enyl]pyrrolidine]	≤ 0.1 µM	≤ 0.01 µM	–	–
C#CC(Oc1ccc(Cl)cc1C)[C@H]1CCNC1 (stereo partly drawn) [Example 27-2, (S)-3-[1-(4-Chloro-2-methylphenoxy)prop-2-ynyl]pyrrolidine]	≤ 0.1 µM	≤ 0.01 µM	–	–
